Laboratory results as given in US8628754B2, “Highly efficient delivery of a large therapeutic mass aerosol” (Civitas Therapeutics, Inc., priority 2000, dated 2014).
Where two headings read alike, the source gives them in different places. One block for each compound: values may come before it.

Experiments:
[1] = system: rat model of Parkinson's disease; assay: Akinesia task; assay type: in vivo
[2] = system: rat model of Parkinson's disease; assay: Rotation test; assay type: in vivo
[3] = oral gavage, 8 mg in saline with 1% methylcellulose, carbidopa pre-treatment, 0-30 min
[4] = system: rat model of Parkinson's disease; assay: Placing task; assay type: in vivo
[5] = system: rat model of Parkinson's disease; assay: Bracing task; assay type: in vivo
[6] = Geometric diameter emitted from breath-activated inhaler (IHA/HELOS); assay type: physicochemical; conditions: 5 mg in size #2 capsule
Method: To further evaluate the ability of the three powders to emit from a simple, breath-activated inhaler, Applicants placed 5 mg of each powder in a size #2 methyl cellulose capsule and inserted the capsule into a breath-activated inhaler. It will be appreciated by those skilled in the art that the receptacle into which the powders are placed will depend on the type of inhaler selected. […] The same results were obtained from measurements of the aerodynamic diameter, with spray-dried particles emitting with very similar aerodynamic diameters as compared to the primary particles.
The geometric diameter emitted from the breath-activated inhaler was measured using an IHA accessory (Sympatec) with the HELOS laser diffractometer. The IHA adapter positions the DPI in front of the measuring zone and allows air to be pulled through the DPI which aerosolizes the powder. Vacuum was drawn at 30 L/min to disperse powder from the AIR inhaler and the geometric diameter was measured by Fraunhofer diffraction.

[7] = Aerodynamic diameter by AeroDisperser/Aerosizer (AeroBreather for emitted size); assay type: physicochemical; conditions: AIR inhaler at 30 L/min, FIG. 2B
Method: The primary aerodynamic diameter was measured using an AeroDisperser/Aerosizer (TSI Inc., Amherst, Mass.). The sample powder was aerosolized by an inlet air stream at 1 psi in the AeroDisperser and then accelerated to sonic velocity into the Aerosizer. The Aerosizer measures the time taken for each particle to pass between two fixed laser beams, which is dependent on the particle's inertia. The TOF (time of flight) measurements were subsequently converted into aerodynamic diameters using Stokes law.
The emitted aerodynamic diameter from the AIR inhaler was determined using the AeroBreather (TSI Inc., Amherst, Mass.) in conjunction with the Aerosizer (TSI, Inc.). The powder was aerosolized from the inhaler at 30 L/min into the AeroBreather chamber and allowed to settle into the Aerosizer.
Aerodynamic diameter was analyzed using the API AeroDisperser and Aerosizer (TSI, Inc., St. Paul, Minn.) following standard procedures (Alkermes SOP #MS-034-005). Sample powder was introduced and dispersed in the AeroDisperser and then accelerated through a nozzle in the Aerosizer. A direct time-of-flight measurement was made for each particle in the Aerosizer, which was dependent on the particle's inertia. The time-of-flight distribution was then translated into a mass-based aerodynamic particle size distribution using a force balance based on Stokes law.

[8] = Tap density; assay type: physicochemical
Text: Tap density can be measured by using instruments known to those skilled in the art such as the Dual Platform Microprocessor Controlled Tap Density Tester (Vankel, N.C.). Tap density is a standard measure of the envelope mass density. Tap density can be determined using the method of USP Bulk Density and Tapped Density, United States Pharmacopia convention, Rockville, Md., 10th Supplement, 4950-4951, 1999. In another embodiment, the particles have a mass median geometric diameter (MMGD) greater than about 5 μm and preferably near to or greater than about 10 μm. In one embodiment, the particles have a MMGD greater than about 5 μm and ranging to about 30 μm. In another embodiment, the particles have a MMGD ranging from about 10 μm to about 30 μm.

[9] = Geometric diameter by RODOS dry powder disperser / HELOS laser diffraction; assay type: physicochemical
Text: The Applicants introduced the powders into and dispersed the powder through an orifice in the RODOS dry powder disperser at varying shear forces by manipulating the regulator pressure of the air stream used to break up the particles. The Applicants obtained the geometric size distribution from the HELOS laser diffractometer as the powder exited and recorded the median value. The data was summarized and plotted as the mass median geometric diameter (MMGD) against pressure.
To evaluate the deagglomeration properties of the three powders, Applicants introduced the powders into a RODOS dry powder disperser and varied the shear force in order to break up the particles by manipulating the regulator pressure of the air stream. Subsequently, following the manufacturer's instructions, Applicants obtained the geometric size distribution from the HELOS laser diffractometer and recorded the median value. The data was summarized and plotted as […] (MMGD) against pressure.
Particles of the present invention were further characterized by the following techniques. The primary geometric diameter was measured using a RODOS dry powder disperser (Sympatec, Princeton, N.J.) in conjunction with a HELOS laser diffractometer (Sympatec). Powder was introduced into the RODOS inlet and aerosolized by shear forces generated by a compressed air stream regulated at 4 bar. The aerosol cloud was subsequently drawn into the measuring zone of the HELOS, where it scattered light from a laser beam and produced a Fraunhofer diffraction pattern used to infer the particle size distribution.
Geometric diameter was determined using a laser diffraction technique (Alkermes SOP #MS-021-005). The equipment consists of a HELOS diffractometer and a RODOS disperser (Sympatec, Inc., Princeton, N.J.). The RODOS disperser applies a shear force to a sample of particles, controlled by the regulator pressure of the incoming compressed air. The dispersed particles travel through a laser beam where the resulting diffracted light pattern produced is collected by a series of detectors. […]

- increase in blood levels of L-Dopa over time [3]: modest
Compound: N[C@@H](Cc1ccc(O)c(O)c1)C(=O)O [L-Dopa]
- time of maximal effects ([1]; oral, 30 mg/kg): ≤ 60 min
- time to improved performance ([1]; oral, 30 mg/kg): ≤ 30 min
- lowest dose with statistically significant (p<0.05) improvements ([1]; pulmonary): 1.0 mg
- time of peak benefits ([1]; pulmonary): 15 to 30 min
- time to significant improvements ([1]; pulmonary): ≤ 10 min
- rotation behavior without pre-treatment with carbidopa ([2]; data not shown): virtually eliminated
- time of peak rotation levels ([2]; oral, 30 mg/kg): approximately 30 minutes
- rotations during the first 10-15 minutes ([2]; oral, 30 mg/kg, carbidopa pre-treatment): < 5 rotations/animal
- rotations relative to oral delivery within the first 10-15 minutes ([2]; pulmonary, 2 mg total): greater than 3 times
- time of peak rotations ([2]; pulmonary, 2 mg total): 25 to 30 min
- difference in drug required to produce equivalent efficacy, oral versus pulmonary ([4]; doses normalized by body weight): ~10 fold
- time of maximal effects ([4]; oral, 20 mg/kg): 60 min
- time of peak performance ([4]; oral, 30 mg/kg): 1 to 2 h
- time to improved performance with the impaired limb ([4]; oral, 30 mg/kg): ≤ 30 min
- lowest dose with significant improvements ([4]; pulmonary): 0.5 mg
- pulmonary dose with recovery comparable to 30 mg/kg given orally ([4]; pulmonary): 1 mg
- time of peak benefits ([4]; pulmonary, highest dose tested): 15 to 30 min
- time to significant improvements ([4]; pulmonary, highest dose tested): ≤ 10 min
- effect on performance ([5]; oral, 20 mg/kg): slightly improved performance
- time of maximal effects ([5]; oral, 30 mg/kg): ≤ 60 min
- time to improved performance ([5]; oral, 30 mg/kg): ≤ 30 min
- lowest dose with statistically significant improvements ([5]; pulmonary): 0.5 mg
- time of peak benefits ([5]; pulmonary): 15 to 30 min
- time to significant improvements ([5]; pulmonary): ≤ 10 min

- geometric diameter emitted from the inhaler [6]: greater than 30 microns
- emitted aerodynamic diameter compared to primary aerodynamic diameter [7]: much larger
- ρ (tap density) [8]: 0.26 g/cc
- primary particle size as measured by RODOS [9]: ~2 microns
- Dg (geometric diameter) ([9]; RODOS/HELOS): 2.5 μm
- state of powder exiting the RODOS orifice ([9]; pressures below 2 bars): aggregated state
Compound: albuterol sulfate [Micronized Alb. Sulfate (1)]

- time required to achieve maximum plasma concentration (insufflated rats): < 15 min
- time required to achieve maximum plasma concentration (orally dosed rats): 15 to 60 min
- time required to achieve maximum plasma concentration (pulmonary delivery route): ≤ 10 min
- plasma levels of ketoprofen, insufflated versus oral group (t=5 min to t=60 min): significantly higher
- plasma levels of ketoprofen, insufflated versus oral group (t=120 min and t=240 min): statistically equivalent
Compound: CC(C(=O)O)c1cccc(C(=O)c2ccccc2)c1 (stereo not drawn) [Ketoprofen]
